# pIC50: −log10 of the molar value. Values joined by “and” are separate entries in the source; they are usually repeats but may differ in a detail not shown here. Identical values can stand only once.
# System: 171881-019-R-J1-PDC complex spheroid viability
# Experiment: Anticancer human tumor 171881-019-R-J1-PDC patient-derived invasive breast carcinoma cell line growth inhibition
# Settings: for viability, T/C: stronger effect = lower value; for pIC50: curve of compound
# From the text: Multicellular complex tumor spheroid response to LSD1 Inhibitor Iadademstat in combination with a variety of drugs and investigational agents in selected tumor cell lines
# The current study was undertaken to assess response to LSD1 inhibitors in combination with standard-of-care drugs and investigational agents in solid tumor complex spheroid models as well as in the K-562 leukemia. Complex spheroids include a stromal component modeled by human endothelial cells (HUVEC) and fibroblasts modeled by human mesenchymal stem cells (MSCs). The concentration ranges selected for each drug and investigational agent were based upon clinically achievable concentrations if the clinical Cmax of the agent was known.
# Compounds. The drugs and investigational agents used in this study are listed on Table 1. All of the agents used, including staurosporine (NSC755774) and gemcitabine (NSC613327), were obtained from the Developmental Therapeutics Program, NCI. FDA-approved anticancer drugs are available from the NCI at http://dtp.nci.nih.gov/branches/dscb/oncology_drugset_explanation.html. Drugs and investigational agents were >95% pure by proton nuclear magnetic resonance (NMR) and liquid chromatography/mass spectrometry (LC/MS). Stock solutions were prepared at 400x in DMSO, stored at -70 degrees C, and diluted in fresh medium prior to their use. The final concentration of DMSO in cell culture wells never exceeded 0.25% (v/v). The FDA-approved anticancer drug set is available from the Developmental Therapeutics Program at https://dtp.cancer.gov/organization/dscb/obtaining/available_plates.htm. All drugs and investigational agents were tested over a range starting from a high concentration at or near the clinical Cmax and decreasing in half-log increments. If the clinical Cmax for an agent had not been determined, the highest concentration tested was 10 microM.
# Cell Lines. The patient-derived cancer cell (PDC) lines: 292921-168-R-J2-PDC, K24384-001-R-PDC, and 521955-158-R2-J5-PDC pancreatic carcinomas, 556581-035-R-J1 ovarian carcinoma, 324938-238-R-J1-PDC, 855422-203-R-J1-PDC and 883617-216-R-J1-PDC urothelial bladder carcinomas, 743489-274-T-PDC renal cell carcinoma, 138582-R-J1 Merkel cell tumor, K60290-347-R-J1 and K57222-313-R-J1-PDC glioblastomas, 653999-131-R-J2-PDC, LG0703-F948-PDC, and 349418-098-R-PDC non-small cell lung carcinomas, 885512-296-R-J2-PDC, 171881-019-R-J1-PDC breast carcinomas and 186277-243-T-J2-PDC and 233499-124-R-J2-PDC colon carcinomas were obtained from the NCI Patient-Derived Models Repository (PDMR, https://pdmr.cancer.gov). The established cell lines NCI/ADR-RES (RRID:CVCL_14520 and OVCAR-5 (RRID:CVCL_1628) ovarian carcinomas, 786-O (RRID:CVCL_1051) and A498 (RRID:CVCL_A498) renal cell carcinoma, NCI-H211 (ATCC, cat. CRL-5824; RRID:CVCL_1529), NCI-H196 (ATCC, cat. CRL-5823, RRID:CVCL_1509), SW 1271 (ATCC, cat. CRL-2177, RRID:CVCL_1716) and NCI-H1876 (ATCC, cat. CRL-5902, RRID:CVCL_1503) small cell lung carcinomas, MDA-MB-231 (RRID:CVCL_0062) and MDA-MB-468 (RRID:CVCL_0419)breast carcinomas (10-12). Pooled donor human umbilical vein endothelial cells (HUVEC, Lonza, cat. CC-2519) and human mesenchymal stem cells (hMSC, Lonza, cat. PT-2501) were purchased from Lonza (Walkersville, MD).
# Cell Culture. All cells were maintained in an incubator at 37 degrees C and 5% CO2 with 95% humidity. The PDC lines were cultured according to standard operating procedures established by the NCI PDMR (https://pdmr.cancer.gov). Briefly all PDCs were thawed and cultured in Matrigel-coated flasks prepared with a working solution of 1X Ham's F-12 nutrient mix, without supplementation (Invitrogen, Waltham, MA, cat. 11765054), 100 U/mL penicillin-streptomycin (Invitrogen, cat. 15140122), and 2.5% Matrigel (Corning Inc., Corning, NY, cat. 354248) for the first three passages. […]
# 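Also: spheroids exposed to agents for 7 days after 3 days growth.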
Compound,pIC50,"viability, T/C (compound 0.0316 µM)","viability, T/C (compound 0.1 µM)","viability, T/C (compound 0.316 µM)","viability, T/C (compound 1 µM)","viability, T/C (compound 3.16 µM)","viability, T/C (compound 10 µM)","viability, T/C (compound 0.00949 µM)","viability, T/C (compound 0.03 µM)","viability, T/C (compound 0.0949 µM)","viability, T/C (compound 0.3 µM)","viability, T/C (compound 0.949 µM)","viability, T/C (compound 3 µM)","viability, T/C (compound 0.000316 µM)","viability, T/C (compound 0.001 µM)","viability, T/C (compound 0.00316 µM)","viability, T/C (compound 0.01 µM)","viability, T/C (compound 0.000949 µM)","viability, T/C (compound 0.003 µM)"
CC1COCCN1c1cc(C2(S(C)(=N)=O)CC2)nc(-c2ccnc3[nH]ccc23)n1 (configuration not stated),5.79 and 5.88,94.6% and 94.9%,89.5% and 95.9%,98.2% and 91.3%,73% and 58.9%,17.2% and 21.2%,8.54% and 9.3%,,,,,,,,,,,,
CC[C@@]1(O)C(=O)OCc2c1cc1n(c2=O)Cc2cc3c(CN(C)C)c(O)ccc3nc2-1,< 7.00 and 7.26,67.5% and 66%,46.6% and 37.6%,,,,,,,,,,,90.9% and 99.1%,116% and 105%,129% and 84.4%,64.3% and 70.4%,,
CCc1c2c(nc3ccc(O)cc13)-c1cc3c(c(=O)n1C2)COC(=O)[C@]3(O)CC,8.74 and > 9.02,,,,,,,26.6% and 22%,19.3% and 18.7%,10.9% and 21%,6.24% and 21.4%,,,,,,,59.6% and 33.9%,43% and 40.4%
COc1cc(C2c3cc4c(cc3C(OC3OC5COC(C)OC5C(O)C3O)C3COC(=O)C23)OCO4)cc(OC)c1O (configuration not stated),6.50 and 6.11,,,,,,,97.7% and 100%,121% and 90%,78.5% and 72.5%,51.8% and 64.3%,32.6% and 49.3%,17.2% and 29.7%,,,,,,

# Further lines, with some results ahead:
pIC50,Compound,"viability, T/C (compound 0.0316 µM)","viability, T/C (compound 0.1 µM)","viability, T/C (compound 0.316 µM)","viability, T/C (compound 1 µM)","viability, T/C (compound 3.16 µM)","viability, T/C (compound 10 µM)","viability, T/C (compound 0.00949 µM)","viability, T/C (compound 0.03 µM)","viability, T/C (compound 0.0949 µM)","viability, T/C (compound 0.3 µM)","viability, T/C (compound 0.949 µM)","viability, T/C (compound 3 µM)","viability, T/C (compound 0.000316 µM)","viability, T/C (compound 0.001 µM)","viability, T/C (compound 0.00316 µM)","viability, T/C (compound 0.01 µM)","viability, T/C (compound 0.000949 µM)","viability, T/C (compound 0.003 µM)"
5.56 and 5.71,CCN(c1cc(-c2ccc(CN3CCOCC3)cc2)cc(C(=O)NCc2c(C)cc(C)[nH]c2=O)c1C)C1CCOCC1,,,,,,,81.1% and 94.4%,86.6% and 102%,92.5% and 86.2%,102% and 82.3%,89.9% and 64.9%,46.9% and 40.9%,,,,,,
< 6.00 and 6.42,COc1cc(Nc2ncc3c(n2)-c2ccc(Cl)cc2C(c2c(F)cccc2OC)=NC3)ccc1C(=O)O,84.5% and 63.2%,89% and 58.9%,80.6% and 54.1%,51.5% and 30.1%,,,,,,,,,,,91.6% and 57%,85.9% and 64.4%,,

# Source: PubChem BioAssay AID1918932 (Molecular Pharmacology Branch, DTP, NCI, 2023)
